Measurements reported in patent publication US20050054559A1, “Compounds for sustained release of orally delivered drugs” (priority 2000, published 2005).
Where two headings read alike, the source gives them in different places. Square brackets hold non-standard residues; d marks the D form. Peptide text beside a SMILES is read from it. * marks the point of attachment. Bn = c1ccc(C*)cc1

Assays:
IBAT [1] = target: T1, IBAT (Homo sapiens, UniProt Q12908); experiment: Electrogenic transport in Xenopus oocytes expressing IBAT; format: cell-based; conditions: for % Max. (GDC): relative to glycodeoxycholate
Source text: (§1) RNA preparation: Human IBAT and LBAT Transporter cDNAs were subcloned into a modified pGEM plasmid that contains 5′ and 3′ untranslated sequences from the Xenopus β-actin gene. These sequences increase RNA stability and protein expression. Plasmid cDNA was linearized and used as template for in vitro transcription (Epicentre Technologies transcription kit, 4:1 methylated:non-methylated GTP).
(§2) Xenopus oocyte isolation. Xenopus laevis frogs were anesthetized by immersion in Tricaine ([…] in deionized water) for 15 min. Oocytes were removed and digested in frog ringer solution (90 mM NaCl, 2 mM KCl, 1 mM MgCl2, 10 mM NaHEPES, pH 7.45, no CaCl2) with 1 mg/mL collagenase (Worthington Type 3) for 80-100 min with shaking. The oocytes were washed 6 times, and the buffer changed to frog ringer solution containing CaCl2 (1.8 mM). Remaining follicle cells were removed if necessary. Cells were incubated at 16° C., and each oocyte injected with […] RNA in […] solution.
(§3) Electrophysiology measurements. Transport currents were measured 2-14 days after injection, using a standard two-electrode electrophysiology set-up (Geneclamp 500 amplifier, Digidata 1320/PCLAMP software and ADInstruments hardware and software were used for signal acquisition). Electrodes ([…]) were microfabricated using a Sutter Instrument puller and filled with 3M KCl. The bath was directly grounded (transporter currents were less than 0.3 μA). Bath flow was controlled by an automated perfusion system (ALA Scientific Instruments, solenoid valves).
For transporter pharmacology, oocytes were clamped at −60 to −90 mV, and continuous current measurements acquired using PowerLab Software and an ADInstruments digitizer. Current signals were lowpass filtered at 20 Hz and acquired at 4-8 Hz. All bath and drug-containing solutions were frog ringers solution containing CaCl2. Drugs were applied for 10-30 seconds until the induced current reached a new steady-state level, followed by a control solution until baseline currents returned to levels that preceded drug application. The difference current (baseline subtracted from peak current during drug application) reflected the net movement of charge resulting from electrogenic transport and was directly proportional to tranport rate. Recordings were made from a single oocyte for up to 60 min, enabling 30-40 separate compounds to be tested per oocyte. […]. Using this normalization procedure Vmax (i.e. maximal induced current) for different compounds tested on different oocytes could be compared.

LBAT = target: T2, LBAT (Homo sapiens, UniProt Q14973); experiment: Inhibition of radiolabeled taurocholate uptake in LBAT-transfected CHO cells; format: cell-based; conditions: radiolabeled competition assay in transporter-expressing CHO cells
T2 construct: expressed in transfected cells; host or cells: CHO cells
Procedure: (§4) CHO cells transfected with either the IBAT or LBAT transporter were seeded into 96-well microtiter plates at 100,000 cells/well in 100 μL DMEM containing 10% serum, glutamine and Penstrep. After overnight incubation the media was removed and test compound (25 μL) added at 2× the final desired concentration. Tritiated taurocholate (50,000 CPM/well) was diluted with cold substrate to a final concentration of 5 μM and 25 μL/well of this mixture was added to the plate. After incubating for 1 h at room temperature the solution was removed and the plate washed 4× with PBS at 4° C. 200 μL/well of scintillant is added and the plate then read in a Wallac microbeta counter. The inhibition data is processed by standard methods to calculate an inhibition constant Ki for the test compound.

IBAT [2] = target: T1, IBAT; experiment: Inhibition of radiolabeled taurocholate uptake in IBAT-transfected CHO cells; format: cell-based; design: expressed in transfected cells; host or cells: CHO cells; conditions: radiolabeled competition assay in transporter-expressing CHO cells
Procedure: as §4

hPEPT2 = target: T3, hPEPT2 (Homo sapiens, UniProt Q16348); experiment: Electrogenic transport in Xenopus oocytes expressing hPEPT2; format: cell-based; conditions: test compound 1 mM, relative to Gly-Sar
T3 sequence (Q16348 1-729): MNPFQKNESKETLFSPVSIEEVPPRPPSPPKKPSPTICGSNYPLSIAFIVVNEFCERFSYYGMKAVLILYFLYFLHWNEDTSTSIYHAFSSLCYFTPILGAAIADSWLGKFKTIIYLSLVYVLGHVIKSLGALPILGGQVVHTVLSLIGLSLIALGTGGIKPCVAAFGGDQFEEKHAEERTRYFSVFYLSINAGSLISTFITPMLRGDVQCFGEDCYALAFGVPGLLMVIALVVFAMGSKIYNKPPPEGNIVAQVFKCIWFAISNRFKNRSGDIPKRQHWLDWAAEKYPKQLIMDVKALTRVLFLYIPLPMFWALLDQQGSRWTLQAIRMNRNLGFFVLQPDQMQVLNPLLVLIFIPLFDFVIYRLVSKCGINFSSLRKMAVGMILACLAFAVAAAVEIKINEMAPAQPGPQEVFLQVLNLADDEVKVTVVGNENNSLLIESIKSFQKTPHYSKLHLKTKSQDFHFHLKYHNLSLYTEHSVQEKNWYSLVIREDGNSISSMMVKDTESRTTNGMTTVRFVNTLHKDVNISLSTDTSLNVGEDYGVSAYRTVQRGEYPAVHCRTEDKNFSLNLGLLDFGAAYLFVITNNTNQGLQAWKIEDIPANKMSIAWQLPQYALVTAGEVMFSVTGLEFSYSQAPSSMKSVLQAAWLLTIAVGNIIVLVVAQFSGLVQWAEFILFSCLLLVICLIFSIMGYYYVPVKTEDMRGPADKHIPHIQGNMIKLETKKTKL
Source text: as §1, with “Rat” for “Human IBAT”, “human PEPT1 and PEPT2 transporter” for “LBAT Transporter”
as §2, §3
(§5) For transporter pharmacology, oocytes were clamped at −60 to −90 mV, and continuous current measurements acquired using PowerLab Software and an ADInstruments digitizer. Current signals were lowpass filtered at 20 Hz and acquired at 4-8 Hz. All bath and drug-containing solutions were frog ringers solution containing CaCl2. Drugs were applied for 10-30 seconds until the induced current reached a new steady-state level, followed by a control solution until baseline currents returned to levels that preceded drug application. The difference current (baseline subtracted from peak current during drug application) reflected the net movement of charge resulting from electrogenic transport and was directly proportional to tranport rate. Recordings were made from a single oocyte for up to 60 min, enabling 30-40 separate compounds to be tested per oocyte. […] To compare results between oocytes expressing different levels of transport activity, a saturating concentration of glycyl-sarcosine (1 mM) was used as a common reference to normalize results from test compounds. Using this normalization procedure Vmax (i.e. maximal induced current) for different compounds tested on different oocytes could be compared.

hPEPT1 = target: T4, hPEPT1 (Homo sapiens, UniProt P46059); experiment: Electrogenic transport in Xenopus oocytes expressing hPEPT1; format: cell-based; conditions: for % Max. (Gly-Sar): hPEPT1-expressing oocytes, test compound 1 mM, relative to Gly-Sar; for transport by hPEPT1 (in words): summary of Example 34
T4 sequence (P46059 1-708): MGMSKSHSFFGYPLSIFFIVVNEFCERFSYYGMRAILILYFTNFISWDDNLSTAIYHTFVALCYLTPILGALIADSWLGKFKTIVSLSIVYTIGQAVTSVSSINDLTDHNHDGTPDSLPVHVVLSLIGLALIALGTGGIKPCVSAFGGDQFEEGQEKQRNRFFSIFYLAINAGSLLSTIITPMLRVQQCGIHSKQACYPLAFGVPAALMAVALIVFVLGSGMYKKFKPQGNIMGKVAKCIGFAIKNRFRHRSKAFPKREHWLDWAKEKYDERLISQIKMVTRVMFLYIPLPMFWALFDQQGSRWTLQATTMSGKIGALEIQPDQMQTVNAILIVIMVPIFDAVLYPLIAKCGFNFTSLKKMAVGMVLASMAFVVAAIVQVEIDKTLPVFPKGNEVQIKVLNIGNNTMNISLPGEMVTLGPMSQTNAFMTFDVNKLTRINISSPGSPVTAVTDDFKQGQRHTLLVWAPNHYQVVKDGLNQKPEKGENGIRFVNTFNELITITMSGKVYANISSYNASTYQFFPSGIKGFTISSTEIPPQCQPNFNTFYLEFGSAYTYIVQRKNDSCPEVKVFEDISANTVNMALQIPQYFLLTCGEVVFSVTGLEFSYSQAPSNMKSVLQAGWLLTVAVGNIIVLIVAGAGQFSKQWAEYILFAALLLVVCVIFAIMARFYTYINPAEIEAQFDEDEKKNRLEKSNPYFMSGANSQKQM
Source text: as §1, with “Rat” for “Human IBAT”, “human PEPT1 and PEPT2 transporter” for “LBAT Transporter”
as §2, §3, §5

[3] = Pharmacokinetics in rats following oral administration (Examples 38 and 40); conditions: male, Sprague-Dawley, rat, in vivo, 25 mg/kg
Procedure: (§6) The pharmacokinetics of the prodrug (4) were examined in rats. Three groups of four male Sprague-Dawley rats (approx 200 g) with jugular cannulae each received one of the following treatments: A) a single bolus intravenous injection of gabapentin (25 mg/kg, as a solution in water); B) a single oral dose of gabapentin (25 mg/kg, as a solution in water) administered by oral gavage; C) a single oral dose of (4) (85.25 mg/kg, as a solution in water) administered by oral gavage. Animals were fasted overnight prior to dosing and until 4 hours post-dosing. Serial blood samples were obtained over 24 hours following dosing and blood was processed for plasma by centrifugation. Plasma samples were stored at −80° C. until analyzed. Concentrations of (4) or gabapentin in plasma samples were determined by LC/MS/MS as described in Example 35. Plasma (50 μL) was precipitated by addition of […] of methanol and supernatent was injected directly onto the LC/MS/MS system. The method was linear for gabapentin over the concentration range 0.001 to 20 ng/mL and for (4) over the concentration range 0.01 to 10 ng/mL.
as §6, with “prodrug Cholyl-Phe-Gabapentin (7g)” for “prodrug (4)”, “of (7g) (103.5” for “of (4) (85.25”, “of (7g)” for “of (4)”, “or (2)” for “or gabapentin”, “described above.” for “described in Example 35.”, “system.” for “system. The method was linear for gabapentin over the concentration range 0.001 to 20 ng/mL and for (4) over the concentration range 0.01 to 10 ng/mL.”

[4] = in rats; Salach et al, Pharm. Res. 1994; cited from earlier work

T1 sequence (Q12908 whole entry): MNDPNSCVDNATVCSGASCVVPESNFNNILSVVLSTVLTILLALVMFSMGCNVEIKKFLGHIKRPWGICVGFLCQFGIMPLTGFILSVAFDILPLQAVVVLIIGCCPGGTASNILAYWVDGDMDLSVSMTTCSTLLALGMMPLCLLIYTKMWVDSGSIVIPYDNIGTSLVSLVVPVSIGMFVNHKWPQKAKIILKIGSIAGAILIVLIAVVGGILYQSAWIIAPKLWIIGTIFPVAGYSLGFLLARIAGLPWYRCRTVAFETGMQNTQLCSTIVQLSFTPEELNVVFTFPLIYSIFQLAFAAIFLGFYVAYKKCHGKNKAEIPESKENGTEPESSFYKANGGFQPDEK
T2 sequence (Q14973 whole entry): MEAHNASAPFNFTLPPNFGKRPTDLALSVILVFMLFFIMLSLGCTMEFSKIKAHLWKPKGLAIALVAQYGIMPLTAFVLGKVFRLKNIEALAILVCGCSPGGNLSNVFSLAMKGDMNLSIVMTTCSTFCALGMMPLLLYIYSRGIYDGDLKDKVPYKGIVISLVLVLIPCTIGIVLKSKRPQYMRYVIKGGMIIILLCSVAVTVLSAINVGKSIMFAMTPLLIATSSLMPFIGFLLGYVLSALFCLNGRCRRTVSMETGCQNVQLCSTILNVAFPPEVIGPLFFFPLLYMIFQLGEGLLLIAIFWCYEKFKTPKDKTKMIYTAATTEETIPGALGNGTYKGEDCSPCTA

CC(CCC(=O)NCC(=O)NCC1(CC(=O)O)CCCCC1)C1CCC2C3C(O)CC4CC(O)CCC4(C)C3CC(O)C12C (centres unmarked) [(7a), Cholyl-Gly-Gabapentin]
% Max. (GDC) (IBAT [1]): 67%

CC(CCC(=O)NC(Cc1ccccc1)C(=O)NCC1(CC(=O)O)CCCCC1)C1CCC2C3C(O)CC4CC(O)CCC4(C)C3CC(O)C12C (centres unmarked) [(7g), Cholyl-Phe-Gabapentin]
IC50 (LBAT): 0.5 µM
IC50 (IBAT [2]): 92 µM
EC50 (IBAT [1]): 140 µM
% Max. (GDC) (IBAT [1]): 28%

CC(CCC(=O)NC(Cc1ccc(O)c(O)c1)C(=O)O)C1CCC2C3C(O)CC4CC(O)CCC4(C)C3CC(O)C12C (centres unmarked) [(20), Cholyl-Dopa]
IC50 (LBAT): 5 µM
IC50 (IBAT [2]): 83 µM
% Max. (GDC) (IBAT [1]): 0%

C[C@H](CCC(=O)N[C@@H](Cc1ccc2oc(=O)oc2c1)C(=O)O)[C@H]1CC[C@H]2[C@@H]3[C@H](O)C[C@@H]4C[C@H](O)CC[C@]4(C)[C@H]3C[C@H](O)[C@]12C [(23), Cholyl-Dopa-(3,4-carbonate)]
IC50 (LBAT): 1.8 µM
IC50 (IBAT [2]): 74 µM
% Max. (GDC) (IBAT [1]): 25%

N[C@@H](CCC(=O)O)C(=O)N[C@@H](CSCc1ccccc1)C(=O)O [(27), H-Glu-Cys(Bzl)-OH] (H-Glu-Cys(Bn)-OH)
% Max. (Gly-Sar) (hPEPT2): 56%
% Max. (Gly-Sar) (hPEPT1): 41%
transport by hPEPT1 (in words) (hPEPT1): efficient substrates

N[C@@H](CCC(=O)O)C(=O)N[C@@H](COCc1ccccc1)C(=O)O [(28), H-Glu-Ser(Bzl)-OH] (H-Glu-Ser(Bn)-OH)
% Max. (Gly-Sar) (hPEPT2): 82%
% Max. (Gly-Sar) (hPEPT1): 58%
transport by hPEPT1 (in words) (hPEPT1): efficient substrates

N[C@@H](CC(=O)O)C(=O)N[C@@H](CSCc1ccccc1)C(=O)O [(30), H-Asp-Cys(Bzl)-OH] (H-Asp-Cys(Bn)-OH)
% Max. (Gly-Sar) (hPEPT2): 78%
% Max. (Gly-Sar) (hPEPT1): 55%
transport by hPEPT1 (in words) (hPEPT1): efficient substrates

N[C@@H](CCC(=O)O)C(=O)N[C@H](CSCc1ccccc1)C(=O)O [(34), H-Glu-D-Cys(Bzl)-OH] (H-Glu-[dC](Bn)-OH)
% Max. (Gly-Sar) (hPEPT2): 0%
% Max. (Gly-Sar) (hPEPT1): 1%

N[C@@H](CCC(=O)O)C(=O)N[C@H](COCc1ccccc1)C(=O)O [(35), H-Glu-D-Ser(Bzl)-OH] (H-Glu-[dS](Bn)-OH)
% Max. (Gly-Sar) (hPEPT2): 0%
% Max. (Gly-Sar) (hPEPT1): 1%

N[C@@H](CC(=O)O)C(=O)N[C@H](CSCc1ccccc1)C(=O)O [(36), H-Asp-D-Cys(Bzl)-OH] (H-Asp-[dC](Bn)-OH)
% Max. (Gly-Sar) (hPEPT2): 0%
% Max. (Gly-Sar) (hPEPT1): 2%

N[C@@H](CC(=O)O)C(=O)N[C@H](COCc1ccccc1)C(=O)O [(37), H-Asp-D-Ser(Bzl)-OH] (H-Asp-[dS](Bn)-OH)
% Max. (Gly-Sar) (hPEPT2): 0%
% Max. (Gly-Sar) (hPEPT1): 1%

Cl.NCC1(CC(=O)O)CCCCC1 [gabapentin, 1-aminomethyl-1-cyclohexaneacetic acid hydrochloride, reference compound]
bioavailability [3]: 87 ± 18%
Tmax ([3]; po): 2.8 ± 2.5 h
half-life ([3]; po): 2.4 ± 0.5 h

N-Phthaloylglycine
half-life [4]: ~0.167 h
